Measured values published in patent US4465687A, “Thienamycin derivatives as anti-inflammatory agents” (Merck & Co., Inc., priority 1982, dated 1984).

Biological target: T1, Human Polymorphonuclear Leukocyte Elastase (Homo sapiens, UniProt P08246)
T1 construct: Crude extract of human polymorphonuclear leukocytes (PMN) containing elastase activity; endogenous in cells; host or cells: human polymorphonuclear leukocytes (crude extract)
T1 sequence (P08246 30-247 limits assumed): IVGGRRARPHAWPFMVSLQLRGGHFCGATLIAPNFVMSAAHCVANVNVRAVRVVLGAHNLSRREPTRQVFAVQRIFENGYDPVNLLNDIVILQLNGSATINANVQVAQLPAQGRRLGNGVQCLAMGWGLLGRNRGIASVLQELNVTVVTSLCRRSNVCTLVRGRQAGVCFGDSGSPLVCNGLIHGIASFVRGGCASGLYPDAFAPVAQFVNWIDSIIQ
Assay: Inhibition of human polymorphonuclear leukocyte elastase via hydrolysis of N-t-Boc-alanyl-alanyl-prolylalanine-p-nitroanilide
Assay type: biochemical
Conditions: measured within 2 minutes, crude PMN extract; for inhibition at 5 µg/mL: Conc. of compound 5 μg/ml; for inhibition at 20 µg/mL: Conc. of compound 20 μg/ml; for inhibition at 50 µg/mL: Conc. of compound 50 μg/ml; for inhibition at 1 µg/mL: Conc. of compound 1 μg/ml; for inhibition at 2 µg/mL: Conc. of compound 2 μg/ml
Method: Protocol--Enzyme Assays for the Inhibition of Human Polymorphonuclear Leukocyte Elastase Via Hydrolysis of N-t-Boc-alanyl-alanyl-prolylalanine-p-nitroanilide
0.05M TES (N-tris[hydroxymethyl]methyl-2-amino-ethanesulfonic acid) Buffer, pH 7.5.
0.2 mM N-t-Boc-alanyl-alanyl-Prolyl-Alanine-p-nitroanilide (Boc-AAPAN).
To prepare substrate, the solid (m.w. 550) was first dissolved in 10.0 ml DMSO. Buffer at pH 7.5 was then added to a final volume of 100 ml.
Crude extract of human polymorphonuclear leukocytes (PMN) containing elastase activity.
Inhibitors (thienamycin esters) to be treated dissolved in DMSO just before use.
To 1.0 ml of 0.2 mM Boc-AAPAN in a cuvette, 0.01-0.1 ml of DMSO with or without inhibitor was added. After mixing, a measurement was taken at 410 mμ to detect any spontaneous hydrolysis due to presence of test compound. 0.05 Milliliters of PMN extract was then added and the ΔOD/min at 410 mμ was measured and recorded. Beckman model 35 spectrophotometer was used.
The elastase activity in the crude PMN extract may vary from one preparation to another. A control of each new batch is run, and the volume added in the assay procedure is adjusted according to activity.

Row | inhibition at 50 µg/mL | Structure (SMILES) | inhibition at 5 µg/mL | inhibition at 20 µg/mL | inhibition at 1 µg/mL | inhibition at 2 µg/mL | inhibition at 0.5 µg/mL (Conc. of compound .5 μg/ml) | inhibition at 10 µg/mL (Conc. of compound 10 μg/ml) | inhibition at 25 µg/mL (Conc. of compound 25 μg/ml)
1 | 89% | CCCC(=O)NCCSC1=C(C(=O)OCc2ccc([N+](=O)[O-])cc2)N2C(=O)[C@H]([C@@H](C)OC(C)=O)[C@H]2C1 [COCH2 C2 H5 / H / Ac / PNB] | 31% | 69% |  |  |  |  | 
2 | 100% | CC(O)[C@H]1C(=O)N2C(C(=O)OCc3ccc([N+](=O)[O-])cc3)=C(SCCNC(=O)Cc3ccccc3)C[C@H]12 (stereo partly drawn) [COCH2 C6 H5 / H / H / PNB] | 84% | 95% | 47% |  |  |  | 
3 |  | CC(O)[C@H]1C(=O)N2C(C(=O)OCc3ccc([N+](=O)[O-])cc3)=C(SCCN3C(=O)c4ccccc4C3=O)C[C@H]12 (stereo partly drawn) [phthaloyl / H / PNB] | 93% | 100% | 76% | 86% | 50% |  | 
4 |  | CC(O)[C@H]1C(=O)N2C(C(=O)OCc3ccccc3)=C(SCCN3C(=O)c4ccccc4C3=O)C[C@H]12 (stereo partly drawn) [phthaloyl / H / benzyl] | 89% | 100% | 39% | 56% |  |  | 

Row | Structure (SMILES) | inhibition at 50 µg/mL | inhibition at 5 µg/mL | inhibition at 20 µg/mL | inhibition at 1 µg/mL | inhibition at 2 µg/mL | inhibition at 0.5 µg/mL (Conc. of compound .5 μg/ml) | inhibition at 10 µg/mL (Conc. of compound 10 μg/ml) | inhibition at 25 µg/mL (Conc. of compound 25 μg/ml)
5 | CC(O[Si](C)(C)C)[C@H]1C(=O)N2C(C(=O)OCc3ccc([N+](=O)[O-])cc3)=C(SCCN3C(=O)c4ccccc4C3=O)C[C@H]12 (stereo partly drawn) [phthaloyl / TMS / PNB] | 96% |  |  | 38% | 83% |  | 95% | 95%
